Assays:
[1] = target: T1, Alpha-1A adrenergic receptor (Homo sapiens, UniProt P35348); assay type: functional, cell-based
T1 sequence (P35348 whole entry): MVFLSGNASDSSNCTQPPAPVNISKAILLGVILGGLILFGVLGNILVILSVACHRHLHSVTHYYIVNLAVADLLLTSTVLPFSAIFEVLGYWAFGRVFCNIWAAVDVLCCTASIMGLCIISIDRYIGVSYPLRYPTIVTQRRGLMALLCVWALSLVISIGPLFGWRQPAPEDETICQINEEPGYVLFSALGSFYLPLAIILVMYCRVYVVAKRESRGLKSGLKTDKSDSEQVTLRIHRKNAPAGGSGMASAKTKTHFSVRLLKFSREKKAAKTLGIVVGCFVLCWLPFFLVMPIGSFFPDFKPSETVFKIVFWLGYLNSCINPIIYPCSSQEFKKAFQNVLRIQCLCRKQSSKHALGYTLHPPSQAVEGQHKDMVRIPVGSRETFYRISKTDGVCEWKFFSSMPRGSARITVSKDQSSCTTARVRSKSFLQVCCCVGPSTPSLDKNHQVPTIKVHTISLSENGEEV

[2] = target: T2, Alpha-2B adrenergic receptor (Homo sapiens, UniProt P18089)
T2 sequence (P18089 whole entry): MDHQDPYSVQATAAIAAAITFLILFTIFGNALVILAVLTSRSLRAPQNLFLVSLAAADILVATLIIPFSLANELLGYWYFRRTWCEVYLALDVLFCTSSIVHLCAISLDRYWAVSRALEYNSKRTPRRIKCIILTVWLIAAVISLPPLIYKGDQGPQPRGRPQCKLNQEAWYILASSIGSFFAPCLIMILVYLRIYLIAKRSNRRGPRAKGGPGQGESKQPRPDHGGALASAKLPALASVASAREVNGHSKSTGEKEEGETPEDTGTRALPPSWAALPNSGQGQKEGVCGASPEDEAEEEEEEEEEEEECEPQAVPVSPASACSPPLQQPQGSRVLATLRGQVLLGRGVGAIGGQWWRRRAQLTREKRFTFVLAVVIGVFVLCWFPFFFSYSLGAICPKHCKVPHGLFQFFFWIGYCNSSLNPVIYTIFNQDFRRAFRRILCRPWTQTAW

[3] = target: T3, Alpha-2C adrenergic receptor (Homo sapiens, UniProt P18825); assay type: functional
T3 sequence (P18825 whole entry): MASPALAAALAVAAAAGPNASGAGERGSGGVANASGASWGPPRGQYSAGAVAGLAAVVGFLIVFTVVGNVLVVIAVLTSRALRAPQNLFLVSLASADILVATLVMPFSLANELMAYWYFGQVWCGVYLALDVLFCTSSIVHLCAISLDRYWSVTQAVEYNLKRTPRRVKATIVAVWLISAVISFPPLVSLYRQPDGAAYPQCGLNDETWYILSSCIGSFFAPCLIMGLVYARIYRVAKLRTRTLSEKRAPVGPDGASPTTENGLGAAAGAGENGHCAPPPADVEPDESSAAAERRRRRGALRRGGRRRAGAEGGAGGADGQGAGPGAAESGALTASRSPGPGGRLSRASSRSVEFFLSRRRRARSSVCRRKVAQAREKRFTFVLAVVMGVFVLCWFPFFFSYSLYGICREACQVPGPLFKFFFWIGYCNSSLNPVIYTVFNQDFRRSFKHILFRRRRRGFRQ

[4] = target: T4, B2 bradykinin receptor (Homo sapiens, UniProt P30411)
T4 sequence (P30411 whole entry): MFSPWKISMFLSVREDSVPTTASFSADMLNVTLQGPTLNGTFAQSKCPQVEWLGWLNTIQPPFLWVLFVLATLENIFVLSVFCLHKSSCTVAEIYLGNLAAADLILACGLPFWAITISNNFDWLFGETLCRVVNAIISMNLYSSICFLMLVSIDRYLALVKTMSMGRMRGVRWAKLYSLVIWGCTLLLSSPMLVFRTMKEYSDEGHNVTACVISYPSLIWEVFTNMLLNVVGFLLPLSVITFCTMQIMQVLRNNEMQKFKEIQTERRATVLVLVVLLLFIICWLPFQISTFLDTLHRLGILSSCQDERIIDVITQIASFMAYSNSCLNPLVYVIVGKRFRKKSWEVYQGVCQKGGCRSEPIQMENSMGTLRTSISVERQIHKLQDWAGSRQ

[5] = target: T5, Muscarinic acetylcholine receptor M1 (Homo sapiens, UniProt P11229); assay type: functional
T5 sequence (P11229 whole entry): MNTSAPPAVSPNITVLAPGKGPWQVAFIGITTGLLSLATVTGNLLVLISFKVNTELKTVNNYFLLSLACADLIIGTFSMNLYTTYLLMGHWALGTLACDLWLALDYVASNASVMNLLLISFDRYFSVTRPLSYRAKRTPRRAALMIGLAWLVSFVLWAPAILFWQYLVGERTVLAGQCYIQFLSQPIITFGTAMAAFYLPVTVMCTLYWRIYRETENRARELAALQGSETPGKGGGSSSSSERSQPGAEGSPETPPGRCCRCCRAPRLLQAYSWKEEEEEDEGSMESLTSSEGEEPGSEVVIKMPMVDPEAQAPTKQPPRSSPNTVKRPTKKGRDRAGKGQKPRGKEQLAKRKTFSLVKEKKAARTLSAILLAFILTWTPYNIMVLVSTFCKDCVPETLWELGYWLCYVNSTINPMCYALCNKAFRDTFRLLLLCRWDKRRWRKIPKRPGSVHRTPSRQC

[6] = target: D(1A) dopamine receptor (Homo sapiens, UniProt P21728); assay type: functional, cell-based
[7] = target: Gamma-aminobutyric acid receptor subunit alpha-1 (Rattus norvegicus, UniProt P62813)
[8] = target: Histamine H2 receptor (Homo sapiens, UniProt P25021); assay type: functional, cell-based
[9] = target: Histamine H3 receptor (Homo sapiens, UniProt Q9Y5N1)
[10] = target: T6, Equilibrative nucleoside transporter 1 (Homo sapiens, UniProt Q99808)
T6 sequence (Q99808 whole entry): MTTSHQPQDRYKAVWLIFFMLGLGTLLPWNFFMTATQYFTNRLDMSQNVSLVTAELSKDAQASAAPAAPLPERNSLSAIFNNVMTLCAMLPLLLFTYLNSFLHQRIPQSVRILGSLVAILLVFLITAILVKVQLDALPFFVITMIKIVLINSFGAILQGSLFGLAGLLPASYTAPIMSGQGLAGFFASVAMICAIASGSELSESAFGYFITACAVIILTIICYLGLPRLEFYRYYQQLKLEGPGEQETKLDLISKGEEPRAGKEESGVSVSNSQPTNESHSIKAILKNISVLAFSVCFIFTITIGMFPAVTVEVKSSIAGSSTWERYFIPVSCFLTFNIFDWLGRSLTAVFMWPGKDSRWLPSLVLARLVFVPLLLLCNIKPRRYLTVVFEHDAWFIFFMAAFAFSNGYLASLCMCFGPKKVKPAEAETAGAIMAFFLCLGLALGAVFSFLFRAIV
Note: assay procedure not described here.

Sequence of Histamine H2 receptor (P25021 whole entry): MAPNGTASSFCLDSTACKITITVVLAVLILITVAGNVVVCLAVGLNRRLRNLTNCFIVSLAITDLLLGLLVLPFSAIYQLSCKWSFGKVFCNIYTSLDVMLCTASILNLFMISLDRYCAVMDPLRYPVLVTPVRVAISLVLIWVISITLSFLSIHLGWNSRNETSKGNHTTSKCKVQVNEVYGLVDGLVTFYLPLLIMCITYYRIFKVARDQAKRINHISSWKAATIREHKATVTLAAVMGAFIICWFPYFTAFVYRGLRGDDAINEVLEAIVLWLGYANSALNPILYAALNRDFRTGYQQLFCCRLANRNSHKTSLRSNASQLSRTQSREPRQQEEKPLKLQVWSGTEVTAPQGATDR
Sequence of Gamma-aminobutyric acid receptor subunit alpha-1 (P62813 whole entry): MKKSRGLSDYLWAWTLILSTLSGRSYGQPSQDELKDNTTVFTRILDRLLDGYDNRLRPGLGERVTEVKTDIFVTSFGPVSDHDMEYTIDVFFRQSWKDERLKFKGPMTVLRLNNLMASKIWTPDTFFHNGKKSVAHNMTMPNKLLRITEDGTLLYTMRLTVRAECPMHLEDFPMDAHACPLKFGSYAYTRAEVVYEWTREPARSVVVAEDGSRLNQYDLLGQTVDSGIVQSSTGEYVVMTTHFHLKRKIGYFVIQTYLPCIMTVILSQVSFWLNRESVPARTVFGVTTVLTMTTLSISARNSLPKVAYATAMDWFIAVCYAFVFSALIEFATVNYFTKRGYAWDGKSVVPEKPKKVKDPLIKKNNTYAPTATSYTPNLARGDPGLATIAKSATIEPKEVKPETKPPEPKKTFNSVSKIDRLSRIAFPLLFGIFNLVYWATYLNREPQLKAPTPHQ
Sequence of Histamine H3 receptor (Q9Y5N1 whole entry): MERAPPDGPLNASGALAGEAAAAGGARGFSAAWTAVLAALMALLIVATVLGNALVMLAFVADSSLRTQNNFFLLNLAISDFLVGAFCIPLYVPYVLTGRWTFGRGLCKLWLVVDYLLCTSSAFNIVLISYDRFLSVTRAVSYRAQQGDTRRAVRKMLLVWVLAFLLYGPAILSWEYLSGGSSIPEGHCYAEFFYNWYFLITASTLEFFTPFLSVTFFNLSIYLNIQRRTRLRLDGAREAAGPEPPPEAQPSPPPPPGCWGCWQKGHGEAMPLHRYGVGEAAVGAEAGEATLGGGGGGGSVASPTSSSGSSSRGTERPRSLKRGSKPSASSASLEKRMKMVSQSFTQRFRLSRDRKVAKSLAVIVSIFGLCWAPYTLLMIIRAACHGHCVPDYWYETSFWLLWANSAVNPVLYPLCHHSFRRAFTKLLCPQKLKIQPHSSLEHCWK
Sequence of D(1A) dopamine receptor (P21728 whole entry): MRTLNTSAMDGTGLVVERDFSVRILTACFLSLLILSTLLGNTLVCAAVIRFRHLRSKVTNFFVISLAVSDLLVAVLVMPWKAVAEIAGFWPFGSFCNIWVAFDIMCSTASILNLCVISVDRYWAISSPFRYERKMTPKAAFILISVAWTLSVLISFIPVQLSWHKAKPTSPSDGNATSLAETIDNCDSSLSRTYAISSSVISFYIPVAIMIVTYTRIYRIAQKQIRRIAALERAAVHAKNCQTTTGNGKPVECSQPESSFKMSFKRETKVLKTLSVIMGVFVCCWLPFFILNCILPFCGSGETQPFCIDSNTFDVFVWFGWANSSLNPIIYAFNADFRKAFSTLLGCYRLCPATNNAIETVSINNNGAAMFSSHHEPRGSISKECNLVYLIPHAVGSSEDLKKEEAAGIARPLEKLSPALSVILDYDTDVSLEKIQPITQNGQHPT

SMILES	AC50 [1] [µM]	AC50 [2] [µM]	AC50 [3] [µM]	AC50 [4] [µM]	AC50 [5] [µM]	AC50 [6] [µM]	AC50 [7] [µM]	AC50 [8] [µM]	AC50 [9] [µM]	AC50 [10] [µM]
CCC(COC(=O)c1cc(OC)c(OC)c(OC)c1)(c1ccccc1)N(C)C (stereo unspecified) [TRIMEBUTINE]	> 30	17	> 30	> 30	> 30	> 30	> 30	> 30	> 30	–
NC1CCN(c2nc3c(cc2F)c(=O)c(C(=O)O)cn3-c2ccc(F)cc2F)C1 (stereo unspecified) [TOSUFLOXACIN]	> 30	–	> 30	> 30	–	> 30	–	> 30	> 30	> 30
Cn1c(=O)cc(N2CCC[C@@H](N)C2)n(Cc2ccccc2C#N)c1=O [ALOGLIPTIN]	–	> 10	> 10	> 30	> 10	–	–	–	> 10	> 30
COc1cc2ncnc(Nc3ccc(F)c(Cl)c3)c2cc1NC(=O)/C=C/CN1CCCCC1 [DACOMITINIB ANHYDROUS]	> 30	–	21	–	11	–	–	–	–	–
Cn1cnc2c(F)c(Nc3ccc(Br)cc3Cl)c(C(=O)NOCCO)cc21 [SELUMETINIB]	–	–	> 10	–	> 10	–	–	–	–	> 30
NC(=O)CN1CCCC1=O	> 30	–	> 30	> 30	–	> 30	> 30	> 30	> 30	–
O=C1CN=C(c2ccccn2)c2cc(Br)ccc2N1 [BROMAZEPAM]	11	> 10	> 10	> 10	> 10	> 10	> 10	> 10	–	> 10
CC(=O)[C@@]1(O)CC[C@H]2[C@@H]3C=C(Cl)C4=CC(=O)[C@@H]5C[C@@H]5[C@]4(C)[C@H]3CC[C@@]21C [CYPROTERONE]	–	> 10	> 10	> 10	> 10	2.07	> 10	> 10	–	> 10
CCN(CC)CCNC(=O)c1cc(S(C)(=O)=O)ccc1OC [TIAPRIDE]	> 30	–	> 30	> 30	–	> 30	> 30	> 30	> 30	> 30
O=C1CN=C(c2ccccc2)c2cc([N+](=O)[O-])ccc2N1 [NITRAZEPAM]	–	–	> 10	> 10	–	> 30	> 10	> 30	–	> 10

— ChEMBL document CHEMBL5291721, “A preclinical secondary pharmacology resource illuminates target-adverse drug reaction associations of marketed drugs” (Nat Commun, 2023)
